Experimental data from US20100144781A1, “METHODS OF TREATING PSYCHOSIS AND SCHIZOPHRENIA BASED ON POLYMORPHISMS IN THE ERBB4 GENE” (priority 2008, published 2010).

Tested on: subjects with schizophrenia
Assay: Change in PANSS total score by rs6435681 (ErbB4) genotype, pooled paliperidone arms of clinical trial Nos. 1-4
Type: in vivo, human
Details: trials 1-4; for mean reduction in PANSS total score: baseline to end of study
Procedure: The paliperidone treated arms of clinical trial Nos. 1-4, were pooled and examined for genetic association. The trial Nos. 1-3 were paliperidone ER phase III studies and trial No. 4 was a paliperidone palmitate phase II/III study. To confirm results of the initial genetic association, additional paliperidone treated cohorts, including paliperidone palmitate phase III clinical trial Nos 5-8 and paliperidone ER phase III/IV trial Nos. 9 and 10 were evaluated. The results were further examined with the placebo arms of trial Nos. 1-4 and 6-10, the olanzapine arms of trial Nos. 1-3 and 11, the quetiapine arm of trial No. 9, and the Risperdal Consta arm of the trials No. 5 and 11.
Trial Nos. 1 to 3 were randomized, double-blind, placebo and active controlled phase III trials that were designed to evaluate efficacy and safety of paliperidone-ER in the acute treatment of subjects with schizophrenia. Schizophrenic patients experiencing active symptoms, with Positive and Negative […] (PANSS) score=70-120, were enrolled and randomized to different treatment groups. The patients received paliperidone-ER of 3 mg, 6 mg, 9 mg, 12 mg, or 15 mg, olanzapine of 10 mg or placebo tablet once daily for 6 weeks. Primary efficacy variable/Primary Time point was changed in the total PANSS score from baseline to endpoint. The baseline value was the measurement from the last visit prior to or including the first day of dosing with double-blind study medication, and the endpoint value was the measurement at the end of the double-blind phase or the last post-baseline observation during the double-blind phase. Detailed clinical study design and outcomes of trial Nos. 1-3 were described elsewhere (Marder et al., Biol Psychiatry. 2007, 62:1363-70; Davidson et al., Schizophr Res. 2007, 93:117-30; Kane et al., Schizophr Res. 2007, 90:147-61. Epub).
Trial No. 4 was a randomized, double-blind, placebo-controlled phase II/III study to evaluate the efficacy and safety of long-acting injections of paliperidone palmitate at fixed doses of 50 and 100 mg equivalent in subjects with schizophrenia. Subjects were required to have a total PANSS score between 70 and 120 at Screening and between 60 and 120 on Day 1 prior to the start of double-blind treatment. The primary efficacy variable was the change in total PANSS score from the start of the double-blinded treatment period to the last post-randomization assessment in the double-blinded treatment period.
DNA collected from subjects who consented to the optional pharmacogenomic component of the above clinical trials were analyzed in the genetic study. Briefly, blood samples were collected from subjects and extracted for genomic DNA. […]

**Q.** Which results are given for `Cc1nc2n(c(=O)c1CCN1CCC(c3noc4cc(F)ccc34)CC1)CCCC2O` (stereo not shown) [Paliperidone]?
**A.** mean reduction in PANSS total score (patients with AA genotype at rs6435681 (N=25)): 0.6; patients displaying a 30% or higher reduction in PANSS total score from baseline (patients with AA genotype): 8%; mean reduction in PANSS total score (patients with GG or GA genotype at rs6435681 (N=659)): 17.8; patients displaying a 30% or higher reduction in PANSS total score from baseline (patients with GG/GA genotype): Twenty-nine
